Values of other authors, collected in patent US20030027808A1, “Farnesyl protein transferase inhibitor combinations with platinum compounds” (priority 2000, published 2003).

Test system: colon cancer (LoVo)
Conditions: in combination with cisplatin; in vitro LoVo colon cancer model; reported at 90th AACR Annual Meeting, Apr. 10-14, 1999

SMILES: Cn1cncc1C(N)(c1ccc(Cl)cc1)c1ccc2c(c1)c(-c1cccc(Cl)c1)cc(=O)n2C (single isomer, unassigned; (+)) [(+)-6-[amino(4-chlorophenyl)(1-methyl-1H-imidazol-5-yl)methyl]-4-(3-chlorophenyl)-1-methyl-2(1H)-quinolinone]
- anti-tumor effect of the combination: additive anti-tumor effect
